Source: patent publication US11053204B2, “Pyrimidinyloxy benzene derivatives as herbicides” (FMC Corporation, priority 2015, dated 2021)

What was measured:
Assay type in all cases: in vivo
[1] = tested on: Italian ryegrass (Lolium multiflorum); experiment: Test A preemergence, visual injury rating; conditions: 0 to 100 scale (0 no effect, 100 complete control)
Summary of the method: (§1)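 Injury scores run from 0, no effect, to 100, complete control, judged by eye against untreated plants roughly 10 days after treatment. Chemicals carried a surfactant in a non-phytotoxic solvent and went onto loam–sand soil preemergence or onto one- to two-leaf seedlings postemergence.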

[2] = tested on: barnyardgrass (Echinochloa crus-galli); experiment: Test A preemergence, visual injury rating; conditions: 0 to 100 scale (0 no effect, 100 complete control)
Summary of the method: as §1

[3] = tested on: giant foxtail (Setaria faberii); experiment: Test A preemergence, visual injury rating; conditions: 0 to 100 scale (0 no effect, 100 complete control)
Summary of the method: as §1

kochia (Kochia scoparia) = experiment: Test A preemergence, visual injury rating; conditions: 0 to 100 scale (0 no effect, 100 complete control)
Summary of the method: as §1

[4] = tested on: pigweed (Amaranthus retroflexus); experiment: Test A preemergence, visual injury rating; conditions: 0 to 100 scale (0 no effect, 100 complete control)
Summary of the method: as §1

[5] = tested on: ragweed (common ragweed, Ambrosia elatior); experiment: Test A preemergence, visual injury rating; conditions: 0 to 100 scale (0 no effect, 100 complete control)
Summary of the method: as §1

[6] = tested on: blackgrass (Alopecurus myosuroides); experiment: Test C postemergence, plant response rating; conditions: for Plant response rating, Blackgrass: scale 0 to 100; for Blackgrass plant response rating: scale 0 to 100 (0 no effect, 100 complete control)
Summary of the method: (§2)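 Visual injury score, 0 = no effect, 100 = complete control, assigned against untreated controls after 13 to 15 d in the greenhouse. Compounds were applied in a surfactant-containing non-phytotoxic solvent mix, preemergence to seeded loam/sand or silt loam soil, or postemergence to 1- to 4-leaf plants (2 to 18 cm).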

[7] = tested on: chickweed (common chickweed, Stellaria media); experiment: Test C postemergence, plant response rating; conditions: for Chickweed plant response rating: scale 0 to 100 (0 no effect, 100 complete control)
Summary of the method: as §2

corn (Zea mays) = experiment: Test C postemergence, plant response rating; conditions: for Corn plant response rating: scale 0 to 100 (0 no effect, 100 complete control)
Summary of the method: as §2

[8] = tested on: crabgrass, large (large crabgrass, Digitaria sanguinalis); experiment: Test C postemergence, plant response rating; conditions: for Crabgrass, Large plant response rating: scale 0 to 100 (0 no effect, 100 complete control)
Summary of the method: as §2

[9] = tested on: foxtail, giant (giant foxtail, Setaria faberii); experiment: Test C postemergence, plant response rating; conditions: for Foxtail, Giant plant response rating: scale 0 to 100 (0 no effect, 100 complete control)
Summary of the method: as §2

[10] = tested on: galium (catchweed bedstraw, Galium aparine); experiment: Test C postemergence, plant response rating; conditions: for Galium plant response rating: scale 0 to 100 (0 no effect, 100 complete control)
Summary of the method: as §2

[11] = tested on: lambsquarters (Chenopodium album); experiment: Test C postemergence, plant response rating; conditions: for Lambsquarters plant response rating: scale 0 to 100 (0 no effect, 100 complete control)
Summary of the method: as §2

[12] = tested on: nutsedge, yellow (yellow nutsedge, Cyperus esculentus); experiment: Test C postemergence, plant response rating; conditions: for Nutsedge, Yellow plant response rating: scale 0 to 100 (0 no effect, 100 complete control)
Summary of the method: as §2

[13] = tested on: oat, wild (wild oat Avena fatua); experiment: Test C postemergence, plant response rating; conditions: for Oat, Wild plant response rating: scale 0 to 100 (0 no effect, 100 complete control)
Summary of the method: as §2

[14] = tested on: ryegrass, Italian (Italian ryegrass, Lolium multiflorum); experiment: Test C postemergence, plant response rating; conditions: for Ryegrass, Italian plant response rating: scale 0 to 100 (0 no effect, 100 complete control)
Summary of the method: as §2

soybean (Glycine max) = experiment: Test C postemergence, plant response rating; conditions: for Soybean plant response rating: scale 0 to 100 (0 no effect, 100 complete control)
Summary of the method: as §2

[15] = tested on: wheat (winter wheat, Triticum aestivum); experiment: Test C postemergence, plant response rating
Summary of the method: as §2

With `O=C(CCCC(F)(F)F)c1c(Oc2ncc(Cl)cn2)cccc1C(F)(F)F` [Compound 125] the “Plant response rating, Ryegrass, Italian” value ([1]; 125 g ai/ha) was 70, the “Ryegrass, Italian plant response rating” value ([1]; 500 g ai/ha) was 100 and the “Plant response rating, Barnyardgrass” value ([2]; 125 g ai/ha) was 100. The “Barnyardgrass plant response rating” value ([2]; 500 g ai/ha) was 100, the “Plant response rating, Foxtail, Giant” value ([3]; 125 g ai/ha) was 100 and the “Foxtail, Giant plant response rating” value ([3]; 500 g ai/ha) was 100. For the same molecule, the “Plant response rating, Kochia” value (kochia (Kochia scoparia); 125 g ai/ha) was 100, the “Kochia plant response rating” value (kochia (Kochia scoparia); 500 g ai/ha) was 100 and the “Plant response rating, Pigweed” value ([4]; 125 g ai/ha) was 100. The “Pigweed plant response rating” value ([4]; 500 g ai/ha) was 100, the “Plant response rating, Ragweed” value ([5]; 125 g ai/ha) was 20 and the “Ragweed plant response rating” value ([5]; 500 g ai/ha) was 40. The “Plant response rating, Blackgrass” value ([6]; 16 g ai/ha) was 10, the “Plant response rating, Blackgrass” value ([6]; 31 g ai/ha) was 20 and the “Blackgrass plant response rating” value ([6]; 62 g ai/ha) was 15. The “Blackgrass plant response rating” value ([6]; 125 g ai/ha) was 30, the “Plant response rating, Chickweed” value ([7]; 16 g ai/ha, scale of 0 to 100) was 70 and the “Plant response rating, Chickweed” value ([7]; 31 g ai/ha, scale 0 to 100) was 75. For the same molecule, the “Chickweed plant response rating” value ([7]; 62 g ai/ha) was 90, the “Chickweed plant response rating” value ([7]; 125 g ai/ha) was 98 and the “Plant response rating, Corn” value (corn (Zea mays); 16 g ai/ha, scale of 0 to 100) was 10. For the same molecule, the “Plant response rating, Corn” value (corn (Zea mays); 31 g ai/ha, scale 0 to 100) was 10, the “Corn plant response rating” value (corn (Zea mays); 62 g ai/ha) was 15 and the “Corn plant response rating” value (corn (Zea mays); 125 g ai/ha) was 20. For the same molecule, the “Plant response rating, Crabgrass, Large” value ([8]; 16 g ai/ha, scale of 0 to 100) was 10, the “Plant response rating, Crabgrass, Large” value ([8]; 31 g ai/ha, scale 0 to 100) was 10 and the “Crabgrass, Large plant response rating” value ([8]; 62 g ai/ha) was 15. The “Crabgrass, Large plant response rating” value ([8]; 125 g ai/ha) was 20, the “Plant response rating, Foxtail, Giant” value ([9]; 16 g ai/ha, scale of 0 to 100) was 10 and the “Plant response rating, Foxtail, Giant” value ([9]; 31 g ai/ha, scale 0 to 100) was 10. The “Foxtail, Giant plant response rating” value ([9]; 62 g ai/ha) was 10, the “Foxtail, Giant plant response rating” value ([9]; 125 g ai/ha) was 25 and the “Plant response rating, Galium” value ([10]; 16 g ai/ha, scale of 0 to 100) was 65. For the same molecule, the “Plant response rating, Galium” value ([10]; 31 g ai/ha, scale 0 to 100) was 70, the “Galium plant response rating” value ([10]; 62 g ai/ha) was 80 and the “Galium plant response rating” value ([10]; 125 g ai/ha) was 90. For the same molecule, the “Plant response rating, Lambsquarters” value ([11]; 16 g ai/ha, scale of 0 to 100) was 70, the “Plant response rating, Lambsquarters” value ([11]; 31 g ai/ha, scale 0 to 100) was 98 and the “Lambsquarters plant response rating” value ([11]; 62 g ai/ha) was 95. For the same molecule, the “Lambsquarters plant response rating” value ([11]; 125 g ai/ha) was 100, the “Plant response rating, Nutsedge, Yellow” value ([12]; 16 g ai/ha, scale of 0 to 100) was 5 and the “Plant response rating, Nutsedge, Yellow” value ([12]; 31 g ai/ha, scale 0 to 100) was 5. The “Nutsedge, Yellow plant response rating” value ([12]; 62 g ai/ha) was 5, the “Nutsedge, Yellow plant response rating” value ([12]; 125 g ai/ha) was 10 and the “Plant response rating, Oat, Wild” value ([13]; 16 g ai/ha, scale of 0 to 100) was 5. For the same molecule, the “Plant response rating, Oat, Wild” value ([13]; 31 g ai/ha, scale 0 to 100) was 10, the “Oat, Wild plant response rating” value ([13]; 62 g ai/ha) was 15 and the “Oat, Wild plant response rating” value ([13]; 125 g ai/ha) was 15. The “Plant response rating, Ryegrass, Italian” value ([14]; 16 g ai/ha, scale of 0 to 100) was 5, the “Plant response rating, Ryegrass, Italian” value ([14]; 31 g ai/ha, scale 0 to 100) was 5 and the “Ryegrass, Italian plant response rating” value ([14]; 62 g ai/ha) was 10. The “Ryegrass, Italian plant response rating” value ([14]; 125 g ai/ha) was 15, the “Plant response rating, Soybean” value (soybean (Glycine max); 16 g ai/ha, scale of 0 to 100) was 25 and the “Plant response rating, Soybean” value (soybean (Glycine max); 31 g ai/ha, scale 0 to 100) was 60. The “Soybean plant response rating” value (soybean (Glycine max); 62 g ai/ha) was 65, the “Soybean plant response rating” value (soybean (Glycine max); 125 g ai/ha) was 70 and the “Plant response rating, Wheat” value ([15]; 16 g ai/ha, scale of 0 to 100) was 5. The “Plant response rating, Wheat” value ([15]; 31 g ai/ha, scale 0 to 100) was 5 and the “Wheat plant response rating” value ([15]; 125 g ai/ha, scale 0 to 100 (0 no effect, 100 complete control)) was 25.
